Data: patent US8901165B2, “Alkoxylated glycerol acetals and their derivatives” (Cognis IP Management GmbH, priority 2009, dated 2014)

Key:
[1] = Dynamic and quasi-static surface tension, tensiometer SITA science line t60; assay type: physicochemical; conditions: for Surface Tension at 0.1 Hz: bubble frequency 0.1 Hz (quasi-static); for Surface Tension at 10 Hz: bubble frequency 10 Hz (dynamic)
From the text: Quasi-Static or equilibrium surface tension at an air-liquid interface can be determined by the Du Noüy ring method, the Wilhelmy plate or the like. […] To avoid such problems, a dynamic method is used but the frequency is reduced to 0.1 Hz or less, thus close enough to equilibrium conditions. […] The products therefore fulfill the complex profile as explained above perfectly.
(§1) Foam properties and surface tension of various alkoxylated glycerol acetals were compared with data obtained from conventional fatty alcohol alkoxylates at 0.1 and 0.25% b.w. concentration, respectively. Foam potential was tested with SITA foam tester R-2000, available from SITA Messtechnik GmbH, Gostritzer Str. 61-63, 01217 Dresden, Germany. Dynamic surface tension was determined with the tensiometer SITA science line t60, ibid.

[2] = Foam potential, SITA foam tester R-2000; assay type: physicochemical; conditions: 0.1% aqueous solution/dispersion
Experimental: as §1

[3] = 0.25% aqueous solution/dispersion
[4] = 0.1% aqueous solution/dispersion

Surface Tension at 0.1 Hz [1, 3] [mN/m] | Surface Tension at 10 Hz [1, 3] [mN/m] | Foam after 1 min [2] [mL] | Foam after 5 min [2] [mL] | Surface Tension at 0.1 Hz [1, 4] [mN/m] | Surface Tension at 10 Hz [1, 4] [mN/m] | Substance
27 | 34 | – | – | – | – | Isodecanol + 6EO [Example C3, reference compound]
26 | 33 | – | – | – | – | Decanol + 5EO [Example C4, reference compound]
– | – | 190 | 170 | 26 | 40 | Decanol + 5EO [Example C2, reference compound]
– | – | 225 | 210 | 27 | 40 | Isodecanol + 6EO [Example C1, reference compound]

Second part, the substance before the results:

Substance | Surface Tension at 0.1 Hz [1, 3] [mN/m] | Surface Tension at 10 Hz [1, 3] [mN/m] | Foam after 1 min [2] [mL] | Foam after 5 min [2] [mL] | Surface Tension at 0.1 Hz [1, 4] [mN/m] | Surface Tension at 10 Hz [1, 4] [mN/m]
n-decyl glycerol acetal+4PO+4EO [Example 2] | – | – | 100 | 80 | 30 | 52
n-decyl glycerol acetal+4PO+4EO [Example 3] | – | – | 120 | 110 | 31 | 50
n-decyl glycerol acetal+4PO+4EO [Example 10] | 32 | 38 | – | – | – | –
n-octyl glycerol acetal+4PO+4EO [Example 9] | 32 | 39 | – | – | – | –
iso-nonyl glycerol acetal+3PO+3EO [Example 5] | – | – | 0 | 0 | 31 | 43
n-octyl glycerol acetal+4PO+4EO [Example 1] | – | – | 30 | 25 | 32 | 44
n-decyl glycerol acetal+4PO+4EO [Example 11] | 31 | 44 | – | – | – | –
iso-nonyl glycerol acetal+3PO+3EO [Example 13] | 29 | 36 | – | – | – | –
